Experimental data from US8450331B2, “Thiophenyl-substituted 2-imino-3-methyl pyrrolo pyrimidinone compounds as BACE-1 inhibitors, compositions, and their use” (Merck Sharp & Dohme Corp., priority 2008, dated 2013).
pIC50, pKi: −log10 of the molar value. Where two headings read alike, the source gives them in different places.

Experiments:
[1] = target: T1, soluble human BACE1 catalytic domain (Homo sapiens, UniProt P56817); test: BACE1 HTRF FRET assay; format: biochemical; conditions: calculated from IC50 by Cheng-Prusoff; QSY7-APPswe-Eu substrate, pH 5.0
T1 construct: purified human BACE1 catalytic domain
T1 sequence (P56817 75-416 limits assumed): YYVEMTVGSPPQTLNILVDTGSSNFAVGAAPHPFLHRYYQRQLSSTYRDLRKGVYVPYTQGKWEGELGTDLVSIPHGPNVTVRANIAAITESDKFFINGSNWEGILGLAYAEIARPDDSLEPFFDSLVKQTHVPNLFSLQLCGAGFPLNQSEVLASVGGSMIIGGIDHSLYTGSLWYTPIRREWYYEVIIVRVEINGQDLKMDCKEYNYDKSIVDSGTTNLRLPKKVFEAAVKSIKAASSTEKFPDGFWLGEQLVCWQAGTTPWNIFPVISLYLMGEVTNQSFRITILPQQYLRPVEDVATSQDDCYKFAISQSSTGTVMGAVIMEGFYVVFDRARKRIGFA

CYP2D6 = target: T2, CYP2D6 (Homo sapiens, UniProt P10635); test: CYP inhibition assay, human liver microsomes, CYP2D6; format: in vitro ADME
T2 construct: human liver microsomes (0.4 mg/ml); from tissue; host or cells: human liver microsomes
T2 sequence (P10635 whole entry): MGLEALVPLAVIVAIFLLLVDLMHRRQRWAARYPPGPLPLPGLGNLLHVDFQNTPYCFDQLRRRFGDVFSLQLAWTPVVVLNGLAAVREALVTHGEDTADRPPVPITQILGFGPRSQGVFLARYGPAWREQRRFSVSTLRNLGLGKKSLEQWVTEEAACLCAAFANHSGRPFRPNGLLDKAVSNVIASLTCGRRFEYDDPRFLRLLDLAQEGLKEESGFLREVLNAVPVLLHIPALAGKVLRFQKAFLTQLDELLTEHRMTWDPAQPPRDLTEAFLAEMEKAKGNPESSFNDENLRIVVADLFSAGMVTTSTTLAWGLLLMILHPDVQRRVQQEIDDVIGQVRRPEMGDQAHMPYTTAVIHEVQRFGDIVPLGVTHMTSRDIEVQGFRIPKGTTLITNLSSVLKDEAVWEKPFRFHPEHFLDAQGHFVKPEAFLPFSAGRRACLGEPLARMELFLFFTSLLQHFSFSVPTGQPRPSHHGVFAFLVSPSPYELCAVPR
Experimental: (§1) The test article was dissolved in methanol at a concentration of 5 mM. Dilutions of the stock solution were also prepared in methanol. The substrate concentration was kept near the Km value for each CYP reaction. The substrates were 100 μM phenacetin (O-deethylase reaction) for CYP1A2, 16 μM dextromethorphan (O-demethylase reaction) for CYP2D6, 100 μM testosterone (6β-hydroxylase reaction) and 5 μM midazolam (1′-hydroxylase reaction) for CYP3A4, 200 μM tolbutamide (4-hydroxylase reaction) for CYP2C9, 125 μM S-(+)-mephenyloin (4-hydroxylase reaction) for CYP2C19 and 5 μM paclitaxel (6[…]-hydroxylase reaction) for CYP2C8. The reactions were terminated by the addition of 35% perchloric acid to a final concentration of 4.5% (vol:vol). The concentrations of the metabolites formed from each substrate after incubation were determined by LC-MS/MS using a standard curve.
(§2) To evaluate metabolism/mechanism-based inhibition, the test article, at the stated concentrations (0 to 50 μM), was pre-incubated with human liver microsomes for 30 min at 37° C. in the presence of NADPH and in the absence of the substrates. After the pre-incubation step, the CYP substrates were added at the previously stated concentrations and the reactions were allowed to proceed as indicated in the previous paragraph.

CYP3A4 = target: T3, CYP3A4 (Homo sapiens, UniProt P08684); test: CYP inhibition assay, human liver microsomes, CYP3A4; format: in vitro ADME
T3 construct: human liver microsomes (0.4 mg/ml); from tissue; host or cells: human liver microsomes
T3 sequence (P08684 whole entry): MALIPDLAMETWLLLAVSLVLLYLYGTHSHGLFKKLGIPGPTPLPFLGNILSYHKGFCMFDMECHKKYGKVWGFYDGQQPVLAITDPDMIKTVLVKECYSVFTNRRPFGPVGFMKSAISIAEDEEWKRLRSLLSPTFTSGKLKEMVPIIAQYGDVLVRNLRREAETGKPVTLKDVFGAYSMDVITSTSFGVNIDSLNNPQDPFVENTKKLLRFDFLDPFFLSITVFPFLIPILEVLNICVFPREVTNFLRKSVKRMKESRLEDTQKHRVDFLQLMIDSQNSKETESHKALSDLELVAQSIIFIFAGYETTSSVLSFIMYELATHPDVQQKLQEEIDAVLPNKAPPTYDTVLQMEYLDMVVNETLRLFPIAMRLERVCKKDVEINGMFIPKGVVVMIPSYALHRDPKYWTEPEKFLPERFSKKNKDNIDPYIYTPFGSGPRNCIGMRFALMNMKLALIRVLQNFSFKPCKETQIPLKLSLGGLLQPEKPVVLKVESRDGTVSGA

CYP2C9 = target: T4, CYP2C9 (Homo sapiens, UniProt P11712); test: CYP inhibition assay, human liver microsomes, CYP2C9; format: in vitro ADME
T4 construct: human liver microsomes (0.4 mg/ml); from tissue; host or cells: human liver microsomes
T4 sequence (P11712 whole entry): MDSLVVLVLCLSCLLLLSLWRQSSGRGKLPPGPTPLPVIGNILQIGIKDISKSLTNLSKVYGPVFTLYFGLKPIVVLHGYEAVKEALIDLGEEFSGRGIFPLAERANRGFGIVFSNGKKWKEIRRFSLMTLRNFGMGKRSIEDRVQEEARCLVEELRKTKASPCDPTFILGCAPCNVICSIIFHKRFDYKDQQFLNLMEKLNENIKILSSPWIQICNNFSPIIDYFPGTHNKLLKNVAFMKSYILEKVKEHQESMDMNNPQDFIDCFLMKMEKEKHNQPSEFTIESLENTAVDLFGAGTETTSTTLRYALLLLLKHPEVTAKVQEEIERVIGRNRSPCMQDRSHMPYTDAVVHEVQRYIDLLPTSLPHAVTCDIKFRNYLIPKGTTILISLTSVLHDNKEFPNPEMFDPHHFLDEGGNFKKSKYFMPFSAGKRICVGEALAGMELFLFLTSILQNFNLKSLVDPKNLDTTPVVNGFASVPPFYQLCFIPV
Experimental: as §1, §2

hERG = target: T5, hERG (Homo sapiens, UniProt Q12809); test: hERG rubidium efflux in hERG-CHO cells; format: cell-based; conditions: CHO cells that express hERG (hERG-CHO); for inhibition at 30 min, 1.5 uG/mL: pH 7.4, 1.5 uG/mL, read-out: HERG Rb efflux % Inhib 1.5 uG/mL; for inhibition at 30 min, 5 uG/mL: pH 7.4, 5 uG/mL, read-out: HERG Rb efflux % Inhib 5 uG/mL
T5 construct: expressed in transfected cells; host or cells: CHO cells (hERG-CHO)
T5 sequence (Q12809 whole entry): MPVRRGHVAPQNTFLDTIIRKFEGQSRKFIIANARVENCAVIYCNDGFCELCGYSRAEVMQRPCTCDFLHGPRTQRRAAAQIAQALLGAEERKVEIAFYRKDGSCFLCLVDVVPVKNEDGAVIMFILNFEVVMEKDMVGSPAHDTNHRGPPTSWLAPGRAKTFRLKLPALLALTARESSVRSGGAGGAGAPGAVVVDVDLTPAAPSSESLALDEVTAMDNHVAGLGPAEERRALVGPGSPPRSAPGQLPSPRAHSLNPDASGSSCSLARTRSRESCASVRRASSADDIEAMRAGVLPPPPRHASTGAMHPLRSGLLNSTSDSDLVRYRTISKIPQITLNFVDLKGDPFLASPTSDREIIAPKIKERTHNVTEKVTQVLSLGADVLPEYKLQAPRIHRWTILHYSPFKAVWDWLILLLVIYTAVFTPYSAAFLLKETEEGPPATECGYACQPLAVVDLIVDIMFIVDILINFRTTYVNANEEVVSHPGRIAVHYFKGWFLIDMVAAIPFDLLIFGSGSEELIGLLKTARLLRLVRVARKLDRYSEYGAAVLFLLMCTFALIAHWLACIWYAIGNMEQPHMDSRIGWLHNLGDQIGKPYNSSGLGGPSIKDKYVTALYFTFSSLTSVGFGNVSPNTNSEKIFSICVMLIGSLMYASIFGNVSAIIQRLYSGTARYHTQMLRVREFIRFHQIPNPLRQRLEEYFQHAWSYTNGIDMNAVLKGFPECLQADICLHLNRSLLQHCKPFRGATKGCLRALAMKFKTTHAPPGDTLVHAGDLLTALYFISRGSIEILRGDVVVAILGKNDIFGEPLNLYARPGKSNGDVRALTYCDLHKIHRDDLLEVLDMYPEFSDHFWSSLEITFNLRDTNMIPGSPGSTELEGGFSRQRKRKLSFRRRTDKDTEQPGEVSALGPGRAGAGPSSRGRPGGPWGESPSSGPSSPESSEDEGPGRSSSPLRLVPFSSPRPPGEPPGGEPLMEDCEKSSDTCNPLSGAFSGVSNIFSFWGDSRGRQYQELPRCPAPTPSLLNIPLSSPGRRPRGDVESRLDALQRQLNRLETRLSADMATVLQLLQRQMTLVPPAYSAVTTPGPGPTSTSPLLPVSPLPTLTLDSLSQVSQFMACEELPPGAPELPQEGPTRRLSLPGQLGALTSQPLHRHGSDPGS
Experimental: The base solution for the rubidium efflux studies was 144 mM NaCl, 20 mM HEPES-NaOH (pH 7.4), 2 mM CaCl2, 1 mM MgCl2, and 11 mM glucose. To prepare the rubidium loading buffer 5.4 mM RbCl was added. The wash buffer was supplemented with 5.4 mM KCl. The depolarization buffer was prepared by adding 40 mM KCl to the wash buffer. Drugs were added as 4× stocks containing 10% DMSO with a resulting final DMSO concentration of 2.5%.
hERG-CHO cells were plated into 96-well flat-bottom dishes and returned to the incubator for 24 hours. On the day of study, culture medium was removed and replaced by a HEPES-buffered saline solution containing 5.4 mM RbCl. Cells were returned to the tissue culture incubator for 3 hours to permit rubidium loading. […] Plates were then washed 3× with HEPES buffered saline containing 5.4 mM KCl and zero rubidium. After the 3rd wash cells were depolarized by the addition of 200 μl HEPES buffered saline containing 45.4 mM KCl. Cells were incubated in the depolarization solution for 5 minutes to permit efflux of rubidium. Supernatants were then collected and analyzed for rubidium content using automated flame atomic absorbance spectroscopy (ICR-8000, Aurora Biosciences). Percent inhibition was quantified based on a signal window defined by no block (vehicle) and full block with 10 μM dofetilide. All pipetting steps for the rubidium efflux screen were implemented using a pipetting robot capable of making simultaneous additions and removals from 96 wells (Quadra-96).

BACE1 = target: T6, BACE1 (Homo sapiens, UniProt P56817); test: BACE inhibitor whole cell IC50 determination using HEK293-APPswe/lon cells (Aβ40); format: cell-based; conditions: 4 hours, Aβ40 in media, read-out: BACE1 A[…]40 IC50
T6 construct: endogenous in cells; host or cells: HEK293 stably transfected with human APP cDNA (Swedish and London mutations)
T6 sequence (P56817 46-501): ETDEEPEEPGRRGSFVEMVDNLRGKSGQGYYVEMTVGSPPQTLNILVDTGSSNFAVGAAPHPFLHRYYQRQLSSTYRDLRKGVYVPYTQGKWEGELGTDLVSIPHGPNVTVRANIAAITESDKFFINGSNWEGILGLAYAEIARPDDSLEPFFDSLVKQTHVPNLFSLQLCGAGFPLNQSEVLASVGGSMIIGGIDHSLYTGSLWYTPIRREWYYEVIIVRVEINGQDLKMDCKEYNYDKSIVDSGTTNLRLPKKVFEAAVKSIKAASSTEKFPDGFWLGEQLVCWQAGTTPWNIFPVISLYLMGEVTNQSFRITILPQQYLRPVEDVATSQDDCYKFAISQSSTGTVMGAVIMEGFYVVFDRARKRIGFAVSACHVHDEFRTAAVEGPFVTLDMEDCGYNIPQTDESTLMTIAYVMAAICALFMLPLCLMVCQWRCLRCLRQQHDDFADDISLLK

human liver Cathepsin D = target: T7, human liver Cathepsin D (Homo sapiens, UniProt P07339); test: Human Cathepsin D FRET assay; format: biochemical; conditions: selectivity with respect to Cathepsin D versus BACE1
T7 construct: Purified (>95%) human liver Cathepsin D; purchased Athens Research & Technology 16-12-030104; host or cells: human liver (tissue-derived)
T7 sequence (P07339 169-412 limits assumed): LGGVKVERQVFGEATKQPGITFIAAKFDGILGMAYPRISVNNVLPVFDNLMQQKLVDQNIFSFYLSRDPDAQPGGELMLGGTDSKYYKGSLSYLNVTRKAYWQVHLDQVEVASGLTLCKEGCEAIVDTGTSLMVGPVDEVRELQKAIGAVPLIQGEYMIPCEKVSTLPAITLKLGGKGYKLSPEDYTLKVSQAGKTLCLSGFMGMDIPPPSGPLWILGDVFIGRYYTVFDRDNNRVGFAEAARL
T7 sequence (P07339 65-161 limits assumed): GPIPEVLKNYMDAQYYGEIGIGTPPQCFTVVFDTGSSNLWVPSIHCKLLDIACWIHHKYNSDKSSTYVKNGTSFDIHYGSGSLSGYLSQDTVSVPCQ

[2] = 30 min pre-incubation with NADPH, read-out: CYP 2D6 IC50 pre
[3] = co-incubation, dextromethorphan substrate, read-out: CYP 2D6 IC50 co
[4] = 30 min pre-incubation with NADPH, read-out: CYP 3A4 IC50 pre
[5] = co-incubation, read-out: CYP 3A4 IC50 co
[6] = 30 min pre-incubation with NADPH, read-out: CYP 2C9 IC50 pre
[7] = co-incubation, tolbutamide substrate, read-out: CYP 2C9 IC50 co

Structure (SMILES) | pKi [1] | pIC50 (CYP2D6; [2]) | pIC50 (CYP2D6; [3]) | pIC50 (CYP3A4; [4]) | pIC50 (CYP3A4; [5]) | pIC50 (CYP2C9; [6]) | pIC50 (CYP2C9; [7]) | inhibition at 30 min, 1.5 uG/mL (hERG) [%] | inhibition at 30 min, 5 uG/mL (hERG) [%] | pIC50 (BACE1) | CathD Selectivity (human liver Cathepsin D)
CCOc1nc(N2C[C@H]3C(=O)N(C)C(=N)N[C@@]3(c3ccc(Cl)s3)C2)nc(CC)c1F [Example 5] | 6.96 | 4.89 | 4.87 | 4.64 | < 4.52 | 5.38 | 5.14 | 10 | 22 | – | –
CCc1nc(N2C[C@H]3C(=O)N(C)C(=N)N[C@@]3(c3ccc(Cl)s3)C2)nc(OC)c1F [Example 4] | – | 4.72 | 4.66 | ~4.52 | < 4.52 | 5.26 | 5.10 | 17 | 49 | – | –
CCCc1nc(N2C[C@H]3C(=O)N(C)C(=N)N[C@@]3(c3ccc(C#N)s3)C2)nc(C)c1F [Example 16] | 7.72 | – | – | – | – | – | – | 44 | 28 | 6.87 | 16
COc1nc(N2C[C@H]3C(=O)N(C)C(=N)N[C@@]3(c3ccc(Cl)s3)C2)nc(C2CC2)c1F [Example 11] | 6.82 | – | – | – | – | – | – | 26 | 72 | 5.88 | –
COc1nc(N2C[C@H]3C(=O)N(C)C(=N)N[C@@]3(c3ccc(Cl)s3)C2)nc(C2CC2)c1Cl [Example 12] | 7.52 | – | – | – | – | – | – | -7 | 34 | 6.25 | –
CCCc1nc(N2C[C@H]3C(=O)N(C)C(=N)N[C@@]3(c3ccc(Cl)s3)C2)nc(OC)c1F [Example 10] | – | 5.09 | 5.21 | 4.92 | < 4.52 | 4.95 | 5.10 | 23 | 65 | – | –
Cc1nc(N2C[C@H]3C(=O)N(C)C(=N)N[C@@]3(c3cc(C#N)cs3)C2)nc(C2CC2)c1F [Example 8] | 7.51 | < 4.52 | < 4.52 | < 4.52 | < 4.52 | < 4.52 | < 4.52 | – | – | 6.68 | 82
Cc1nc(N2C[C@H]3C(=O)N(C)C(=N)N[C@@]3(c3ccc(C#N)s3)C2)nc(C2CC2)c1F [Example 9] | 7.31 | – | – | – | – | – | – | – | – | 6.50 | –
Cc1nc(N2C[C@H]3C(=O)N(C)C(=N)N[C@@]3(c3ccc(Cl)s3)C2)nc(C2CC2)c1F [Example 6] | 7.31 | 4.68 | < 4.52 | 4.92 | 4.80 | 4.72 | 4.72 | – | – | – | –
CCc1nc(N2C[C@H]3C(=O)N(C)C(=N)N[C@@]3(c3ccc(Cl)s3)C2)nc(C)c1F [Example 7] | 7.62 | < 4.52 | < 4.52 | < 4.52 | < 4.52 | < 4.52 | < 4.52 | – | – | 6.55 | –
Cc1nc(N2C[C@H]3C(=O)N(C)C(=N)N[C@@]3(c3ccc(C#N)s3)C2)nc(C)c1F [Example 19] | 7.28 | < 4.52 | < 4.52 | ~4.52 | < 4.52 | < 4.52 | < 4.52 | -5 | 3 | 6.85 | 47
Cc1nc(N2C[C@H]3C(=O)N(C)C(=N)N[C@@]3(c3ccc(Cl)s3)C2)nc(C2CC2)c1Cl [Example 20] | 8.02 | – | – | – | – | – | – | -1 | 34 | 6.67 | 62
CCCc1nc(N2C[C@H]3C(=O)N(C)C(=N)N[C@@]3(c3ccc(Cl)s3)C2)nc(C)c1F [Example 15] | 8.06 | – | – | – | – | – | – | 35 | 40 | 6.83 | 20
Cc1nc(N2C[C@H]3C(=O)N(C)C(=N)N[C@@]3(c3ccc(Cl)s3)C2)nc(C)c1F [Example 14] | 7.33 | < 4.52 | < 4.52 | < 4.52 | < 4.52 | < 4.52 | < 4.52 | 14 | 6 | – | –
CCc1nc(N2C[C@H]3C(=O)N(C)C(=N)N[C@@]3(c3ccc(Cl)s3)C2)nc(C2CC2)c1Cl [Example 13] | 6.80 | – | – | – | – | – | – | 2 | 46 | – | –
[H]/N=C1\N[C@@]2(c3ccc(C#N)s3)CN(c3nc(C)c(F)c(OC)n3)C[C@H]2C(=O)N1C [Example 1] | – | < 4.52 | < 4.52 | – | – | < 4.52 | 4.63 | 1 | 10 | – | –
COc1nc(N2C[C@H]3C(=O)N(C)C(=N)N[C@@]3(c3ccc(Cl)s3)C2)nc(C)c1F [Example 2] | – | < 4.52 | < 4.52 | – | – | 4.64 | 4.69 | 4 | 22 | – | –
